Measurements as given in the supplement of paper PMC13380429.

Key:
Details in all cases: 72 h
[1] = tested on: Caco-2; assay: cell viability relative to DMSO; higher = less toxic
[2] = tested on: Calu-3; assay: as above
[3] = tested on: HepG2; assay: as above
[4] = tested on: U2OS; assay: as above
[5] = tested on: Vero E6; assay: as above
[6] = tested on: Calu-3; assay: relative viability EC50 (midpoint between 100% and the lowest measured viability); higher = less toxic
[7] = tested on: Caco-2; assay: drug sensitivity score (DSS) for viability; higher = more toxic; extreme values may be limits of the assay
[8] = tested on: Calu-3; assay: as above
[9] = tested on: HepG2; assay: as above
[10] = tested on: U2OS; assay: as above
[11] = tested on: Vero E6; assay: as above
[12] = tested on: Caco-2; assay: relative viability EC50 (midpoint between 100% and the lowest measured viability); higher = less toxic
[13] = tested on: HepG2; assay: as above
[14] = tested on: U2OS; assay: as above
[15] = tested on: Vero E6; assay: as above

SMILES	cell viability ([1]; 1 nM)	cell viability ([1]; 10 nM)	cell viability ([1]; 100 nM)	cell viability ([1]; 1000 nM)	cell viability ([1]; 10000 nM)	cell viability ([2]; 1 nM)	cell viability ([2]; 10 nM)	cell viability ([2]; 100 nM)	cell viability ([2]; 1000 nM)	cell viability ([2]; 10000 nM)	cell viability ([3]; 1 nM)	cell viability ([3]; 10 nM)	cell viability ([3]; 100 nM)	cell viability ([3]; 1000 nM)	cell viability ([3]; 10000 nM)	cell viability ([4]; 1 nM)	cell viability ([4]; 10 nM)	cell viability ([4]; 100 nM)	cell viability ([4]; 1000 nM)	cell viability ([4]; 10000 nM)	cell viability ([5]; 1 nM)	cell viability ([5]; 10 nM)	cell viability ([5]; 100 nM)	cell viability ([5]; 1000 nM)	cell viability ([5]; 10000 nM)	relative viability EC50 [6]	drug sensitivity score [7]	drug sensitivity score [8]	drug sensitivity score [9]	drug sensitivity score [10]	drug sensitivity score [11]	relative viability EC50 [12]	relative viability EC50 [13]	relative viability EC50 [14]	relative viability EC50 [15]
CCn1nc(C2CCN(C(=O)CCO)CC2)nc1-c1cnc(N)c(-c2nnc(C(C)(C)C)o2)n1 [AZD8835]	94.1%	93.6%	91.3%	86.6%	64.3%	102%	96.3%	99.1%	81.4%	41.8%	101%	101%	95.1%	78.7%	64%	102%	97.5%	99%	85.2%	70.5%	96.9%	97.9%	93.7%	96%	70%	1.35 µM	3.2	5.9	4.1	2.8	2				
N[C@@H]1CCCCN(c2c(F)cc3c(=O)c(C(=O)O)cn(C4CC4)c3c2Cl)C1 [besifloxacin]	97.1%	98.4%	100%	104%	93.5%	100%	97.3%	100%	103%	107%	102%	92.2%	108%	113%	97.8%	98.2%	99.5%	95.6%	102%	98.9%						> 10 µM	0	0	0	0		> 10 µM	> 10 µM	> 10 µM	
CC(C)C[C@H](NC(=O)CNC(=O)[C@H](Cc1ccc(O)cc1)NC(=O)[C@H](CO)NC(=O)[C@H](Cc1c[nH]c2ccccc12)NC(=O)[C@H](Cc1cnc[nH]1)NC(=O)[C@@H]1CCC(=O)N1)C(=O)N[C@@H](CCCNC(=N)N)C(=O)N1CCC[C@H]1C(=O)NCC(N)=O [gonadorelin]	106%	96%	100%	99.7%	100%	94.7%	98.8%	92.2%	86.9%	97.5%	108%	86.8%	102%	101%	96.2%	97.4%	100%	98.4%	98%	97.7%						> 10 µM	0	0	0	0		> 10 µM	> 10 µM	> 10 µM	
c1nc(CC2CCNCC2)c[nH]1 [immepip]	113%	101%	98.6%	98.8%	102%	96.7%	91.6%	111%	111%	99.9%	108%	107%	103%	111%	95.7%	98.1%	99.8%	97.2%	93.3%	97.9%						> 10 µM	0	0	0	0		> 10 µM	> 10 µM	> 10 µM	
Clc1ccc(COC(Cn2ccnc2)c2ccc(Cl)cc2Cl)cc1 (centres undefined) [econazole]	94.5%	90.1%	97%	90.9%	68.6%	104%	103%	103%	102%	98.5%	100%	98.1%	102%	97.3%	72.6%	102%	97.8%	95.6%	95.3%	90.7%	104%	108%	106%	102%	94.7%	> 10 µM	2.5	0	1.5	0	0			> 10 µM	> 10 µM
N#CCC(=O)c1ccccc1	106%	105%	89.2%	98.2%	102%	103%	108%	96.3%	100%	94.7%	94.9%	103%	101%	106%	96.2%	100%	99.9%	100%	98.3%	104%						> 10 µM	0	0	0	0		> 10 µM	> 10 µM	> 10 µM	
C[C@]12CC/C(=N\OCCN)C[C@@H]1C(=O)C[C@@H]1[C@@H]2CC[C@]2(C)C(=O)CC[C@@H]12 [istaroxime]	97.6%	93.1%	95.7%	88.4%	71.7%	94.5%	96.5%	93%	91.1%	95.5%	110%	102%	88.6%	99.7%	87.2%	98.8%	96.9%	101%	95.7%	51.4%	106%	105%	98.3%	97.9%	61.1%	> 10 µM	2.1	0	0	3.2	2.2		> 10 µM		
CC(=O)SCCC(=O)N1[C@H](C)CCC[C@@H]1C(=O)O [methiopril]	96.1%	103%	93.8%	100%	89.6%	99.2%	99.6%	96.8%	97.5%	88.1%	109%	99.3%	98.6%	96%	97.2%											> 10 µM	0	0.1	0			> 10 µM	> 10 µM		
O=C(CNC(=O)c1ccc(Cl)cc1)NO [benurestat]	98.5%	98.5%	97.4%	98.5%	98.1%	107%	104%	103%	103%	99.3%	110%	108%	104%	101%	95.8%	96.8%	104%	97.5%	104%	95.1%						> 10 µM	0	0	0	0		> 10 µM	> 10 µM	> 10 µM	
COc1ccc2c(c1)c(CC(=O)O)c(C)n2C(=O)c1ccc(Cl)cc1 [indomethacin]	95.6%	98.6%	101%	98.4%	94.6%	99.2%	96.4%	90.7%	84.3%	91.8%	105%	100%	108%	94.7%	95%	98.9%	102%	97.8%	101%	99.7%						> 10 µM	0	1	0	0		> 10 µM	> 10 µM	> 10 µM	
CC(=O)N[C@H]1[C@H]([C@H](O)[C@H](O)CO)OC(O)(C(=O)O)C[C@@H]1O (mixture of isomers) [aceneuramic-acid]	106%	99%	85.8%	99.3%	93.6%	113%	99.6%	99.2%	97.1%	90.4%	94.6%	90.1%	99.9%	67.9%	86.1%						102%	97.4%	101%	93.7%	98%	> 10 µM	0	0	2.5		0	> 10 µM			> 10 µM
O=C(O)c1cc(/N=N/c2ccc(O)c(C(=O)O)c2)ccc1O [olsalazine]	96.8%	107%	104%	106%	91.9%	107%	94.3%	94.4%	100%	105%						99%	102%	103%	107%	103%						> 10 µM	0	0		0		> 10 µM		> 10 µM	
COc1cc([C@@H]2c3cc4c(cc3[C@@H](O[C@@H]3O[C@@H]5CO[C@@H](c6cccs6)O[C@H]5[C@H](O)[C@H]3O)[C@H]3COC(=O)[C@H]23)OCO4)cc(OC)c1O [teniposide]	108%	95.7%	100%	71%	29%	91.1%	92.6%	75.8%	47.2%	40.6%	89.6%	86.1%	47.3%	27.8%	9.9%	99.3%	94.4%	92.7%	66.5%	4.2%	106%	92.8%	100%	75%	64%	0.129 µM	7.8	12.6	21.5	9.4	4.6	1.16 µM	0.0761 µM	1.37 µM	
COc1cc2ncnc(Nc3ccc(O)c(Br)c3)c2cc1OC [WHI-P154]	95.8%	96.6%	89.8%	83.6%	68.8%	106%	103%	94.3%	72.6%	28.6%	108%	102%	101%	89.7%	70%	103%	101%	99.5%	93.1%	86.3%	101%	98.4%	82.8%	68%	35.6%	1.29 µM	3.4	7.2	2.7	0.4	8.2			> 10 µM	0.642 µM
COc1ccc(S(=O)(=O)Nc2cccnc2Nc2ccc(O)cc2)cc1 [ABT-751]	100%	89.6%	86.3%	53.7%	42.4%	108%	87.3%	94%	69.4%	55.8%	101%	108%	105%	45.1%	35.2%	103%	99.4%	104%	57.5%	26.4%	102%	98.9%	93.3%	29.8%	27.9%		10.1	6.2	10	9.2	14.2	0.26 µM	0.521 µM	0.884 µM	0.248 µM
